Results reported in patent US20140271734A1, “BILE ACID RECYCLING INHIBITORS FOR TREATMENT OF BARRETT'S ESOPHAGUS AND GASTROESOPHAGEAL REFLUX DISEASE” (LUMENA PHARMACEUTICALS, INC., priority 2013, published 2014).
Like-named read-outs stand apart in the source and are kept apart here.

Assay: Toxicokinetics of LUM001 free form, 13-week oral capsule toxicity study in dogs
Type: in vivo, Beagle dogs
Parameters: AUC/Dose / Cmax/Dose: unit not given here
Settings: for Cmax / Tmax / AUC(0-t): Beagle, dog, plasma, oral; for AUC(0-t): read-out: AUC(0-24 h), mean
Method: Six- to seven-month old Beagle dogs of body weights of 4.9-9.5 kg (4/sex/group) orally via capsules at 0, 5, 20 or 100 mg/kg for 13 consecutive weeks. Plasma levels of LUM001 (free form) were evaluated on Days 1 and 91. LUM001 was administered by once daily oral gelatin capsules. […] therefore, 105% of a stated dose is given to provide the appropriate amount of compound for dosing. On study Day 1 and Day 91, approximately 2 mL of venous blood was collected in heparinized tubes from the cephalic vein of each animal at 1, 2, 3, 5, 8, and 24 hours post-dose. Blood collection tubes were mixed and placed on ice during the collection period after which they were centrifuged and the plasma was harvested into cryotubes within approximately 60 minutes of blood collection. Plasma samples were stored at approximately −70° C. or lower until analyzed.
The concentration of LUM001 free form in plasma were determined using an LCMSMS method. The assay sensitivity was 5.00 ng/mL for a […] sample.

[1] = both sexes, 5 mg/kg, Day 1, 5 mg/kg, Comb
[2] = both sexes, 5 mg/kg, Day 91, 5 mg/kg, Comb
[3] = both sexes, 20 mg/kg, Day 1, 20 mg/kg, Comb
[4] = both sexes, 20 mg/kg, Day 91, 20 mg/kg, Comb
[5] = both sexes, 100 mg/kg, Day 1, 100 mg/kg, Comb
[6] = both sexes, 100 mg/kg, Day 91, 100 mg/kg, Comb
[7] = female, 5 mg/kg, Day 1, 5 mg/kg, F
[8] = female, 20 mg/kg, Day 1, 20 mg/kg, F
[9] = female, 20 mg/kg, Day 91, 20 mg/kg, F
[10] = female, 100 mg/kg, Day 1, 100 mg/kg, F
[11] = female, 100 mg/kg, Day 91, 100 mg/kg, F
[12] = male, 5 mg/kg, Day 1, 5 mg/kg, M
[13] = male, 5 mg/kg, Day 91, 5 mg/kg, M
[14] = male, 20 mg/kg, Day 1, 20 mg/kg, M
[15] = male, 20 mg/kg, Day 91, 20 mg/kg, M
[16] = male, 100 mg/kg, Day 1, 100 mg/kg, M
[17] = male, 100 mg/kg, Day 91, 100 mg/kg, M

Q: For `CCCCC1(CCCC)CS(=O)(=O)c2ccc(N(C)C)cc2[C@@H](c2ccc(OCc3ccc(C[N+]45CCN(CC4)CC5)cc3)cc2)[C@H]1O` [LUM001], which AUC/Dose (Day 1, 5 mg/kg, Comb) is on record?
A: 3.55

Q: And the BA (Day 1, 5 mg/kg, Comb)?
A: 0.1%

Q: And the Cmax/Dose (Day 1, 5 mg/kg, Comb)?
A: 1.81

Q: And the AUC/Dose (Day 1, 5 mg/kg, F)?
A: 4.17

Q: And the BA (Day 1, 5 mg/kg, F)?
A: <0.1%

Q: And the Cmax/Dose (Day 1, 5 mg/kg, F)?
A: 1.87

Q: And the AUC/Dose (Day 1, 5 mg/kg, M)?
A: 2.92

Q: And the BA (Day 1, 5 mg/kg, M)?
A: <0.1%

Q: And the Cmax/Dose (Day 1, 5 mg/kg, M)?
A: 1.76

Q: What about the AUC/Dose (Day 1, 20 mg/kg, Comb) of the same molecule?
A: 3.63

Q: And the BA (Day 1, 20 mg/kg, Comb)?
A: 0.1%

Q: What about the Cmax/Dose (Day 1, 20 mg/kg, Comb) of the same molecule?
A: 1.25

Q: And the AUC/Dose (Day 1, 20 mg/kg, F)?
A: 2.43

Q: What about the BA (Day 1, 20 mg/kg, F) of the same molecule?
A: <0.1%

Q: And the Cmax/Dose (Day 1, 20 mg/kg, F)?
A: 1.27

Q: What about the AUC/Dose (Day 1, 20 mg/kg, M) of the same molecule?
A: 4.84

Q: What about the BA (Day 1, 20 mg/kg, M) of the same molecule?
A: <0.1%

Q: What about the Cmax/Dose (Day 1, 20 mg/kg, M) of the same molecule?
A: 1.24

Q: And the AUC/Dose (Day 1, 100 mg/kg, Comb)?
A: 2.39

Q: And the BA (Day 1, 100 mg/kg, Comb)?
A: <0.1%

Q: And the Cmax/Dose (Day 1, 100 mg/kg, Comb)?
A: 0.907

Q: What about the AUC/Dose (Day 1, 100 mg/kg, F) of the same molecule?
A: 3.44

Q: And the BA (Day 1, 100 mg/kg, F)?
A: <0.1%

Q: And the Cmax/Dose (Day 1, 100 mg/kg, F)?
A: 1.17

Q: And the AUC/Dose (Day 1, 100 mg/kg, M)?
A: 1.34

Q: And the BA (Day 1, 100 mg/kg, M)?
A: <0.1%

Q: And the Cmax/Dose (Day 1, 100 mg/kg, M)?
A: 0.648

Q: What about the AUC/Dose (Day 91, 5 mg/kg, Comb) of the same molecule?
A: 0.350

Q: What about the BA (Day 91, 5 mg/kg, Comb) of the same molecule?
A: <0.1%

Q: What about the Cmax/Dose (Day 91, 5 mg/kg, Comb) of the same molecule?
A: 0.350

Q: What about the AUC/Dose (Day 91, 5 mg/kg, F) of the same molecule?
A: 0.00

Q: And the BA (Day 91, 5 mg/kg, F)?
A: <0.1%

Q: And the Cmax/Dose (Day 91, 5 mg/kg, F)?
A: 0.00

Q: And the AUC/Dose (Day 91, 5 mg/kg, M)?
A: 0.700

Q: What about the BA (Day 91, 5 mg/kg, M) of the same molecule?
A: <0.1%

Q: And the Cmax/Dose (Day 91, 5 mg/kg, M)?
A: 0.700

Q: And the AUC/Dose (Day 91, 20 mg/kg, Comb)?
A: 2.54

Q: And the BA (Day 91, 20 mg/kg, Comb)?
A: 0.1%

Q: What about the Cmax/Dose (Day 91, 20 mg/kg, Comb) of the same molecule?
A: 1.19

Q: And the AUC/Dose (Day 91, 20 mg/kg, F)?
A: 2.70

Q: What about the BA (Day 91, 20 mg/kg, F) of the same molecule?
A: <0.1%

Q: And the Cmax/Dose (Day 91, 20 mg/kg, F)?
A: 1.25

Q: And the AUC/Dose (Day 91, 20 mg/kg, M)?
A: 2.38

Q: And the BA (Day 91, 20 mg/kg, M)?
A: <0.1%

Q: What about the Cmax/Dose (Day 91, 20 mg/kg, M) of the same molecule?
A: 1.13

Q: And the AUC/Dose (Day 91, 100 mg/kg, Comb)?
A: 5.03

Q: And the BA (Day 91, 100 mg/kg, Comb)?
A: 0.2%

Q: And the Cmax/Dose (Day 91, 100 mg/kg, Comb)?
A: 1.40

Q: And the AUC/Dose (Day 91, 100 mg/kg, F)?
A: 6.01

Q: And the BA (Day 91, 100 mg/kg, F)?
A: <0.1%

Q: And the Cmax/Dose (Day 91, 100 mg/kg, F)?
A: 1.82

Q: And the AUC/Dose (Day 91, 100 mg/kg, M)?
A: 4.05

Q: What about the BA (Day 91, 100 mg/kg, M) of the same molecule?
A: <0.1%

Q: What about the Cmax/Dose (Day 91, 100 mg/kg, M) of the same molecule?
A: 0.974

Q: And the Cmax [1]?
A: 9.07 ng/mL

Q: And the Tmax [1]?
A: 1.5 h

Q: What about the AUC(0-t) [1] of the same molecule?
A: 17.7 ng·h/mL

Q: And the Cmax [2]?
A: 1.75 ng/mL

Q: What about the Tmax [2] of the same molecule?
A: 0.375 h

Q: And the AUC(0-t) [2]?
A: 1.75 ng·h/mL

Q: What about the Cmax [3] of the same molecule?
A: 25.1 ng/mL

Q: What about the Tmax [3] of the same molecule?
A: 2.13 h

Q: And the AUC(0-t) [3]?
A: 72.6 ng·h/mL

Q: And the Cmax [4]?
A: 23.8 ng/mL

Q: What about the Tmax [4] of the same molecule?
A: 1.88 h

Q: What about the AUC(0-t) [4] of the same molecule?
A: 50.8 ng·h/mL

Q: What about the Cmax [5] of the same molecule?
A: 90.7 ng/mL

Q: And the Tmax [5]?
A: 1.38 h

Q: And the AUC(0-t) [5]?
A: 239 ng·h/mL

Q: And the Cmax [6]?
A: 140 ng/mL

Q: What about the Tmax [6] of the same molecule?
A: 2 h

Q: What about the AUC(0-t) [6] of the same molecule?
A: 503 ng·h/mL

Q: And the Cmax [7]?
A: 9.34 ng/mL

Q: What about the Tmax [7] of the same molecule?
A: 1.25 h

Q: What about the AUC(0-t) [7] of the same molecule?
A: 20.9 ng·h/mL

Q: And the Tmax (female, 5 mg/kg, Day 91, 5 mg/kg, F)?
A: 0 h

Q: And the Cmax [8]?
A: 25.3 ng/mL

Q: What about the Tmax [8] of the same molecule?
A: 2 h

Q: And the AUC(0-t) [8]?
A: 48.5 ng·h/mL

Q: What about the Cmax [9] of the same molecule?
A: 25 ng/mL

Q: What about the Tmax [9] of the same molecule?
A: 2 h

Q: And the AUC(0-t) [9]?
A: 53.9 ng·h/mL

Q: What about the Cmax [10] of the same molecule?
A: 117 ng/mL

Q: What about the Tmax [10] of the same molecule?
A: 1.5 h

Q: And the AUC(0-t) [10]?
A: 344 ng·h/mL

Q: What about the Cmax [11] of the same molecule?
A: 182 ng/mL

Q: And the Tmax [11]?
A: 1.75 h

Q: And the AUC(0-t) [11]?
A: 601 ng·h/mL

Q: What about the Cmax [12] of the same molecule?
A: 8.79 ng/mL

Q: And the Tmax [12]?
A: 1.75 h

Q: What about the AUC(0-t) [12] of the same molecule?
A: 14.6 ng·h/mL

Q: And the Cmax [13]?
A: 3.5 ng/mL

Q: What about the Tmax [13] of the same molecule?
A: 0.75 h

Q: What about the AUC(0-t) [13] of the same molecule?
A: 3.5 ng·h/mL

Q: What about the Cmax [14] of the same molecule?
A: 24.8 ng/mL

Q: And the Tmax [14]?
A: 2.25 h

Q: What about the AUC(0-t) [14] of the same molecule?
A: 96.7 ng·h/mL

Q: And the Cmax [15]?
A: 22.6 ng/mL

Q: What about the Tmax [15] of the same molecule?
A: 1.75 h

Q: What about the AUC(0-t) [15] of the same molecule?
A: 47.6 ng·h/mL

Q: And the Cmax [16]?
A: 64.8 ng/mL

Q: And the Tmax [16]?
A: 1.25 h

Q: And the AUC(0-t) [16]?
A: 134 ng·h/mL

Q: What about the Cmax [17] of the same molecule?
A: 97.4 ng/mL

Q: What about the Tmax [17] of the same molecule?
A: 2.25 h

Q: What about the AUC(0-t) [17] of the same molecule?
A: 405 ng·h/mL
